The values below come from patent publication US11154540B2, “Methods of treating ophthalmic disease/disorder or injury with ibudilast” (MediciNova, Inc., priority 2018, dated 2021).

“Also recorded” adds a separate entry of the source.

For series [1], the system named is subjects with primary or secondary progressive multiple sclerosis. The series is described as follows: Optical coherence tomography (OCT) outcomes in the SPRINT-MS phase II randomized, double-blind, placebo-controlled trial. The format is in vivo, human. As for the experimental part: This was a multicenter, randomized, double-blind, placebo-controlled, parallel-group study designed to evaluate the safety, tolerability and activity of ibudilast administered twice daily over a 96 week period in subjects with primary or secondary progressive multiple sclerosis. The primary objectives of the study were: • to evaluate the activity of ibudilast (100 mg/d) versus placebo at 96 weeks as measured by quantitative magnetic resonance imaging (MRI) analysis for whole brain atrophy using brain parenchymal fraction (BPF); • to evaluate the safety and tolerability of ibudilast (100 mg/d) versus placebo administered orally in subjects with primary and secondary progressive multiple sclerosis; and • to study the effect of ibudilast on macular measures from the SPRINT-MS phase II trial of ibudilast in progressive MS. The major secondary objectives were to evaluate the activity of ibudilast at 96 weeks versus placebo as measured by: • Diffusion tensor imaging (DTI) in descending pyramidal white matter tracts; • Magnetization transfer ratio (MTR) imaging in normal-appearing brain tissue; • Retinal nerve fiber layer as measured by Optical coherence tomography (OCT); and • Cortical atrophy as measured by cortical longitudinal atrophy detection algorithm ([…] total of 255 male and female subjects from 21 to 65 years old, inclusive, were enrolled into one of two treatment arms (ibudilast 100 mg/d or matching-placebo). Study population for SPRINT-MS was a mix of primary (53%) and secondary progressive (47%) MS, average age 56 years and median expanded disability status scale (EDSS)=6.0 at baseline. Randomization of subjects was stratified by disease status ([…]), and by immunomodulating therapy status: “untreated”, glatiramer acetate (GA), or interferon-beta. Subjects were allowed to continue using of interferon-beta (IFN-β) or glatiramer acetate while participating in this study. During the study, subjects were allowed to change medications from one injectable to the other. Pegylated interferon beta-1 were also allowed (if approved by the FDA). Inhaled and topical steroids are allowed. If a relapse episode occurred, a single course of systemic corticosteroids was permitted, as prescribed by the treating neurologist. Subjects returned to the clinic for follow-up visits on a regular basis at Week 4, 8, 12, 24, 36, 48, 60, 72, 84 and 96. The double-blind Treatment Phase consisted of a Baseline visit followed by 10 scheduled clinic visits. The Baseline Visit had to have occurred within 45 days following the Screening Visit. At the Baseline Visit (Day 1), subjects who completed all of the screening assessments and continued to meet eligibility criteria were randomized to one of two treatment groups (ibudilast 100 mg/d or placebo) in a 1:1 ratio. […] Subjects took their first dose of study medication (30 mg ibudilast or placebo) on the evening of the Baseline Visit (Day 1). On the morning of Day 2, all subjects begun a 3 capsule BID dosing regimen through Day 14. Subjects randomized to ibudilast started at 60 mg/d (30 mg BID) on Day 2 and remained on 60 mg/d through Day 14. Beginning on Day 15, all subjects increased dosing to 5 capsules BID regimen; those randomized to the ibudilast treatment arm were taking 100 mg/d. After Day 15, subjects with intolerable side-effects (e.g., nausea, diarrhea, vertigo) were allowed to reduced their dose to either 4 capsules twice a day (80 mg/d for those taking ibudilast) or 3 capsules twice a day (60 mg/d for those taking ibudilast). Subjects with intolerable side-effects (e.g., nausea, diarrhea, vertigo) at the end of Day 14 were allowed to continue taking 3 capsules twice a day at the Investigator's discretion. At the Investigator's discretion, the daily dose of ibudilast were potentially adjusted between 3 capsules twice a day, 4 capsules twice a day, and 5 capsules twice a day over the first 8 weeks of treatment. […]

For series [2] the following is noted: Sanftner et al., Xenobiotica 2009 39: 964-977; cited from earlier work.

Consider `CC(C)C(=O)c1c(C(C)C)nn2ccccc12` [ibudilast, 3-isobutyryl-2-isopropylpyrazolo[1,5-a]pyridine], for which the “macular volume loss and GCIP layer thinning (in words)” value in series [1] (Cirrus OCT) is “favorable changes towards reduced macular volume loss and GCIP layer thinning”. The “rate of macular volume loss, between-group difference per year” value in series [1] (Cirrus OCT, ibudilast vs placebo, 95% CI: −0.0090 to 0.0499) is given as 0.0204 mm^3; in series [1] (Spectralis OCT, ibudilast vs placebo, 95% CI: 0.0008 to 0.0623) it was 0.0316 mm^3. Besides, the ganglion cell-inner plexiform layer thinning, between-group difference per year in series [1] (Cirrus OCT, ibudilast vs placebo, 95% CI: −0.1189 to 1.0578) stood at 0.469 µm/year. Further, in series [1] (Spectralis OCT over 96 weeks), the “annual macular volume loss compared to placebo (in words)” value is recorded as “slower”. Also, the “estimated rate of macular volume change per year” value in series [1] (patients followed with Cirrus OCT, 95% CI: −0.02167 to 0.020866, placebo −0.02083, p=0.1734) is −0.0004 mm^3; in series [1] (patients followed with Spectralis OCT, 95% CI: −0.02693 to 0.01688, placebo −0.03659, p=0.044), −0.00503 mm^3. In series [2], the “CNS distribution / penetration (in words)” value is “distributes well to the CNS; also recorded: good CNS penetration”.
